From patent publication US20230117034A1, “PYRAZOLOTRIAZINES” (Bayer Aktiengesellschaft, priority 2019, published 2023)

Assays:
CDK9/CycT1 = target: T1, CDK9/CycT1 (Homo sapiens, UniProt P50750); assay: CDK9/CycT1 high ATP kinase assay (TR-FRET, 2 mM ATP); assay type: biochemical; details: 2 mM ATP (high ATP); median; read-out: CDK9/CyclinT1, 2 mM ATP (high ATP), IC50 (median)
T1 construct: Recombinant full-length His-tagged human CDK9 and CycT1; purchased Life Technologies PV4131; host or cells: insect cells
How it was run: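 Full-length His-tagged human CDK9/CycT1 (insect cell, ~0.5 μg/mL) preincubated 15 min at 22 °C with compound in Tris pH 8.0, MgCl2, DTT buffer before reaction with biotinylated peptide substrate at high ATP (2 mM).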

CDK12/CycK = CDK12/CycK (Homo sapiens, UniProt Q9NYV4); assay: CDK12/CycK high ATP kinase assay (TR-FRET, 2 mM ATP); assay type: biochemical; details: 2 mM ATP (high ATP); median; read-out: CDK12/CyclinK, 2 mM ATP (high ATP), IC50-[mol/l] (median)
How it was run: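 Read-out is TR-FRET (Eu-anti-rabbit IgG, anti-phospho-c-Myc Ser62 antibody, streptavidin-XL665) after EDTA stop. Reaction ran 60 min at 22 °C using 1 µM biotin-peptide and high ATP (2 mM) with roughly 0.75 nM recombinant CDK12/CycK, after 15 min compound pre-binding; normalised emission ratios yield IC50.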

T1 sequence (P50750 whole entry): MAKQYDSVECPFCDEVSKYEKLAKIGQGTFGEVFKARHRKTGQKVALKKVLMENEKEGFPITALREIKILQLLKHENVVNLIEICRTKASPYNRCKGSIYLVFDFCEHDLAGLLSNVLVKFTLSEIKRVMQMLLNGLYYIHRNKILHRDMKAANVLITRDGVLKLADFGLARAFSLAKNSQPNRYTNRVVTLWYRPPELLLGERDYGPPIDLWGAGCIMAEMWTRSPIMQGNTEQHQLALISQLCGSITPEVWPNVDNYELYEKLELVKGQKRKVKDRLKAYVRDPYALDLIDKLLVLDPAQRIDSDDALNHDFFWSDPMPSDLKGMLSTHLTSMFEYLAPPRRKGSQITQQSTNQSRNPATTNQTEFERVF
T1 sequence (O60563 whole entry partner): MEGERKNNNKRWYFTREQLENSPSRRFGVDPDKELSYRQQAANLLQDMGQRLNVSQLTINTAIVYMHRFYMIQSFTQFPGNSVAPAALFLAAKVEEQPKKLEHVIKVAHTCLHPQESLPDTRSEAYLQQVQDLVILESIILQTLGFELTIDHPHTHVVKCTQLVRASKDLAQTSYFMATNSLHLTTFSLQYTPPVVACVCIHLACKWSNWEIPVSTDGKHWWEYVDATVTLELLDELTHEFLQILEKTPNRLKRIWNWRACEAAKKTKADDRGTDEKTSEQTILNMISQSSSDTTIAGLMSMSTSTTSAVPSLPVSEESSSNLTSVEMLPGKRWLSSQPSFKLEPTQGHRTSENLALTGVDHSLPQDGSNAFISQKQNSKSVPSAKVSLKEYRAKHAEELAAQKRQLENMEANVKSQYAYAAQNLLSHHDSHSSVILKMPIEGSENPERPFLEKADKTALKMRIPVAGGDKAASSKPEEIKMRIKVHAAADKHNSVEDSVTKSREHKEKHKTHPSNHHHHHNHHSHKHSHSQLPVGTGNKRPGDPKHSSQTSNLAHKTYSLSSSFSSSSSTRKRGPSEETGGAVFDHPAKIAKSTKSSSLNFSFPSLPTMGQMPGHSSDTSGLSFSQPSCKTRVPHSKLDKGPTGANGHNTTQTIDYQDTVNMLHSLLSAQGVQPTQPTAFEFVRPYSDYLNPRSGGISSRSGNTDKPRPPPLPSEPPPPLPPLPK
CDK12/CycK, sequence (Q9NYV4 with tags, fused parts or gaps): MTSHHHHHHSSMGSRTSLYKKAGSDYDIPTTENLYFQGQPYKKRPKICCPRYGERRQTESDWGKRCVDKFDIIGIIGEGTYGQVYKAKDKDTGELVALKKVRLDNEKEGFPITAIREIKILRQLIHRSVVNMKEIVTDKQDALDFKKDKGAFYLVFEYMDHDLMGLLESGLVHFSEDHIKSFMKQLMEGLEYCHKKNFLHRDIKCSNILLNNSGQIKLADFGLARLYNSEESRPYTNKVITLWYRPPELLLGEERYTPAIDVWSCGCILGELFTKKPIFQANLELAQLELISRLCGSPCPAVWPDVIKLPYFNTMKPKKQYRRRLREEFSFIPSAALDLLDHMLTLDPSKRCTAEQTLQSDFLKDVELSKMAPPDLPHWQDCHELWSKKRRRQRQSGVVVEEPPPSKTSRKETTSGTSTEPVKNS
CDK12/CycK, sequence (O75909 1-300 partner limits assumed): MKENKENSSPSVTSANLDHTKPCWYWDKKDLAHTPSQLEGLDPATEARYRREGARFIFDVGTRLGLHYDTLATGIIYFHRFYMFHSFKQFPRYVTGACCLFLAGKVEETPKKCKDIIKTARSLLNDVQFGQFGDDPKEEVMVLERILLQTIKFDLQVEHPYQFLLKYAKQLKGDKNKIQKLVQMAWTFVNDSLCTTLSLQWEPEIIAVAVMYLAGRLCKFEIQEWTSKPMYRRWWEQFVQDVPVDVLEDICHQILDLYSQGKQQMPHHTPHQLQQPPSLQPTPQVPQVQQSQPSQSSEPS

Row | IC50 (CDK9/CycT1) [µM] | IC50 (CDK12/CycK) [µM] | SMILES
1 | > 20 | 6.01 | CO[C@H]1CCN(c2nc(NCc3nc4ccccc4[nH]3)n3ncc(Br)c3n2)C1 [Example 222, N-[(1H-benzimidazol-2-yl)methyl]-8-bromo-2-[(3S)-3-methoxypyrrolidin-1-yl]pyrazolo[1,5-a][1,3,5]triazin-4-amine]
2 | > 20 | 6.94 | OC1CCCN(c2nc(NCc3nc4ccccc4[nH]3)n3ncc(Br)c3n2)C1 (racemic) [Example 16, (rac)-1-(4-{[(1H-benzimidazol-2-yl)methyl]amino}-8-bromopyrazolo[1,5-a][1,3,5]triazin-2-yl)piperidin-3-ol]
3 | > 20 | > 15.7 | CN1CCN(c2nc(NCc3nc4ccccc4[nH]3)n3ncc(Br)c3n2)CC1 [Example 18, N-[(1H-benzimidazol-2-yl)methyl]-8-bromo-2-(4-methylpiperazin-1-yl)pyrazolo[1,5-a][1,3,5]triazin-4-amine]
4 | > 20 | 5.78 | C[C@@H]1CN(c2nc(NCc3nc4ccccc4[nH]3)n3ncc(Br)c3n2)CCN1 [Example 168, N-[(1H-benzimidazol-2-yl)methyl]-8-bromo-2-[(3R)-3-methylpiperazin-1-yl]pyrazolo[1,5-a][1,3,5]triazin-4-amine]

Second part, the compound before the results:

Row | SMILES | IC50 (CDK9/CycT1) [µM] | IC50 (CDK12/CycK) [µM]
5 | CN(C)C1CCN(c2nc(NCc3nc4ccccc4[nH]3)n3ncc(Br)c3n2)CC1 [Example 201, N-[(1H-benzimidazol-2-yl)methyl]-8-bromo-2-[4-(dimethylamino)piperidin-1-yl]pyrazolo[1,5-a][1,3,5]triazin-4-amine] | > 20 | > 20
6 | CC(C)(O)CNc1nc(NCc2nc3ccccc3[nH]2)n2ncc(Br)c2n1 [Example 229, 1-[(4-{[(1H-benzimidazol-2-yl)methyl]amino}-8-bromopyrazolo[1,5-a][1,3,5]triazin-2-yl)amino]-2-methylpropan-2-ol] | > 20 | 5.51
7 | COc1ccc2[nH]c(CNc3nc(N4C[C@@H](C)N[C@@H](C)C4)nc4c(Br)cnn34)nc2c1 [Example 205, 8-bromo-2-[(3R,5S)-3,5-dimethylpiperazin-1-yl]-N-[(5-methoxy-1 H-benzimidazol-2-yl)methyl]pyrazolo[1,5-a][1,3,5]triazin-4-amine] | > 20 | 7.97
8 | Brc1cnn2c(NCc3nc4ccccc4[nH]3)nc(N3CCNC4(CC4)C3)nc12 [Example 176, N-[(1H-benzimidazol-2-yl)methyl]-8-bromo-2-(4,7-diazaspiro[2.5]octan-7-yl)pyrazolo[1,5-a][1,3,5]triazin-4-amine] | > 20 | 2.33
9 | Fc1cccc2[nH]c(CNc3nc(N4C[C@@H]5CCCN[C@@H]5C4)nc4c(C5CC5)cnn34)nc12 [Example 187, 8-cyclopropyl-N-[(4-fluoro-1H-benzimidazol-2-yl)methyl]-2-[(4aS,7aS)-octahydro-6H-pyrrolo[3,4-b]pyridin-6-yl]pyrazolo[1,5-a][1,3,5]triazin-4-amine] | > 20 | 6.5
10 | CN1CC2CCC(C1)N2c1nc(NCc2nc3ccccc3[nH]2)n2ncc(Br)c2n1 [Example 226, N-(1H-benzimidazol-2-ylmethyl)-8-bromo-2-(3-methyl-3,8-diazabicyclo[3.2.1]octan-8-yl)pyrazolo[1,5-a][1,3,5]triazin-4-amine] | > 20 | > 20
11 | CCN(C)c1nc(NCc2nc3ccccc3[nH]2)n2ncc(Br)c2n1 [Example 233, N4-(1H-benzimidazol-2-ylmethyl)-8-bromo-N2-ethyl-N2-methyl-pyrazolo[1,5-a][1,3,5]triazine-2,4-diamine] | > 20 | 7.54
12 | COc1cccc2[nH]c(CNc3nc(N4C[C@H]5C[C@@H]4CO5)nc4c(C5CC5)cnn34)nc12 [Example 198, 8-cyclopropyl-N-[(4-methoxy-1H-benzimidazol-2-yl)methyl]-2-[(1R,4R)-2-oxa-5-azabicyclo[2.2.1]heptan-5-yl]pyrazolo[1,5-a][1,3,5]triazin-4-amine] | > 20 | 7.48
